Three molecules from patent US11370841B2, “Methods of treating fibroblast growth factor 19-mediated cancers and tumors” (NGM Biopharmaceuticals, Inc., priority 2016, dated 2022) can be followed below.

One experiment concerns FGF19-mediated HCC. Briefly: Tumorigenicity study in db/db mice (AAV-SOCS3, tofacitinib). The class given is in vivo. How it is done: Blood parameters. Blood was collected from tail vein in un-anesthetized animals using microvette serum gel tubes (Sarstedt) for measurements of glucose, insulin, ALT, AST, ALP, bile acids, and FGF19 concentrations. Serum samples were prepared by centrifugation at 4° C. for 10 minutes at 6000 g after clotting at room temperature for 30 minutes. For HbA1c measurements, whole blood was collected after euthanasia by cardiac puncture into EDTA-tubes and quickly inverted multiple times. HbA1c (from whole blood samples) and liver enzyme (from serum samples) levels were measured on Cobas Integra 400 Clinical Analyzer (Roche Diagnostics). Serum FGF19 level was determined by FGF19 enzyme-linked immunosorbent assays (ELISA) (Biovendor). Serum insulin was assessed with ELISA kits from ALPCO. Concentrations of total bile acids in serum were determined using a 3β-hydroxysteroid dehydrogenase method (Diazyme). All assays were performed according to the manufacturers' instructions.
Histology and immunohistochemistry. Livers were fixed in 10% neutral-buffered formalin and embedded in paraffin. 5 μm sections were deparaffinized in xylenes, rehydrated sequentially in graded ethanol (100%, 95%, 80%, 70%, 50%, 2 minutes each). Hematoxylin and eosin staining was performed using standard methods. For immunohistochemical studies, liver sections were subjected to antigen retrieval in a citrate-based Antigen Unmasking Solution (Vector Laboratories), and incubated for 30 minutes with 3% H2O2 at room temperature to block endogenous peroxidase activity. Sections were stained with primary antibodies against glutamine synthetase (Thermo Fisher), BrdU, PCNA, or STAT3 in PBS containing 10% goat serum. Biotinylated secondary antibodies, ABC-HRP reagent (Vectastain ABC kit, #PK-6100, Vector Laboratories) and di-amine-benzidine (DAB) colorimetric peroxidase substrate (#SK-4100, Vector Laboratories) were used for detection. When indicated, sections were counterstained with hematoxylin. Digital imaging microscopy was performed using a Leica DM4000 microscope equipped with DFC500 camera and a scanning platform (Leica). Images for the entire liver section were acquired by stitching 70-96 fields together using Surveyor program for morphometric analysis. Glutamine synthetase-positive tumor areas were quantified using Measure/Count/Area tool from ImagePro software.
Tumorigenicity study in db/db mice. 11 to 12 week old db/db mice received a single intravenous dose of AAV containing either FGF19 or a control gene (green fluorescent protein). Body weight and blood glucose were monitored. […] Mice were euthanized 24 weeks post-AAV administration and examined for liver tumor formation by gross appearance and histology.

The test system of experiment [1] is primary mouse hepatocytes. In words: In vitro pSTAT3 activation in primary mouse hepatocytes. The class given is cell-based. The note with it: isolated mouse hepatocytes, 50 ng/ml. How it is done:
Primary mouse hepatocytes were isolated from 8-10 week old wild type mice (BioReclamation/IVT). Cells were diluted in attachment media, and cells were plated on collagen-coated 6-well plate (Becton Dickinson). Four hours later, cells were changed into M199 media supplemented with 10% FBS, 2 mM glutamine, 100 unit/ml penicillin, 100 unit/ml streptomycin, and cultured for 16 hours at 37° C. When indicated, 50 ng/ml FGF19 protein or 50 ng/ml mouse IL-6 (Peprotech) were added.
Cell extracts were prepared in 50 mM Tris-Cl, PH 7.2, 150 mM NaCl, 1% NP-40, 0.1% SDS, 0.5% sodium deoxycholate supplemented with a protease inhibitor cocktail (Roche) and phosphatase inhibitors (Sigma, phosphatase inhibitor cocktail set 2 and set 3), and protein concentrations were determined by BCA protein assay (Thermo Scientific).
Immunoblotting. Cell or tissue lysates were mixed with 4×SDS sample loading buffer (50 mM Tris-Cl, pH6.8, 2.5% SDS, urea, 4% β-mercaptoethanol), heated for 10 minutes at 95° C., and separated on 4-20% SDS-polyacrylamide gels (Life Technologies) in 1×MOPS running buffer. Proteins were transferred onto PVDF membranes (GE Healthcare). Membranes were blocked in TBST buffer (20 mM Tris-Cl, pH 7.6, 137 mM NaCl, 0.1% Tween-20) containing 5% non-fat dry milk for 1 hour at room temperature, and incubated with anti-pSTAT3^Y705, anti-total STAT3, anti-pERK, anti-total ERK, or anti-β-actin antibodies in blocking buffer at 4° C. overnight. Membranes were washed in TBST extensively, and bound proteins were detected with horseradish peroxidase-conjugated goat-anti-mouse IgG or goat-anti-rabbit IgG antibodies (GE Healthcare) for 1 hour at room temperature. […]
To investigate an in vitro direct effect of FGF19 on STAT3 activation in isolated hepatocytes, pSTAT3^Y705 levels in primary cultures of hepatocytes upon FGF19 stimulation were analyzed by western blotting. […] Cell lysates were prepared at the indicated time points following FGF19 stimulation and analyzed for phosphorylation of the various proteins.

For experiment [2], the system named is primary mouse hepatocytes. In words: In vitro BrdU incorporation in primary mouse hepatocytes. The class given is cell-based. The note with it: 48 hours incubation. How it is done: FIGS. 2A-2E depict non-cell autonomous promotion of hepatocellular proliferation by FGF19. 11 week old mice (n=5 per group) were implanted with osmotic pumps releasing BrdU (8.5 mg/kg/day) and FGF19 protein (0.4 mg/kg/day). Livers were harvested 6 days post-implant. (FIG. 2A) Flow cytometry analysis of BrdU-labeled livers is shown. Representative histograms from hepatocytes stained with 7-ADD and anti-BrdU-APC are shown. (FIG. 2B) BrdU-positive hepatocytes as a percentage of total hepatocytes from vehicle (V)-treated (n=5) or FGF19-treated (n=5) mice were quantified by flow cytometry. (FIG. 2C) Shown are circulating FGF19 levels on day 6 post-implant of osmotic pumps. (FIG. 2D) Lack of proliferative effects of FGF19 on primary mouse hepatocytes. Primary cultures of hepatocytes isolated from mouse liver were incubated with recombinant FGF19 protein at the indicated concentrations for 48 hours and BrdU was added during the last 20 hours of incubation. BrdU incorporation was determined using a luminescence method. Mouse hepatocyte growth factor (mHGF) was included as a positive control. RLU, relative luminescence unit. (FIG. 2E) Lack of proliferative effects of FGF19 on primary human hepatocytes. Primary cultures of hepatocytes isolated from human liver were incubated with recombinant FGF19 protein. Human hepatocyte growth factor (hHGF) was included as a positive control. […]

[3] abbreviates: diet with 0.01% tofacitinib from 4 weeks after AAV-FGF19, 20 weeks.

In the case of `C[C@@H]1CCN(C(=O)CC#N)C[C@@H]1N(C)c1ncnc2[nH]ccc12` [tofacitinib], in the experiment with FGF19-mediated HCC (setting [3]), the Average tumor load result is “reduced” and the “Number of macroscopically detectable tumors” value is “reduced”. For the same molecule, in the experiment with FGF19-mediated HCC (tofacitinib in diet), the “FGF19's effect on normalizing blood levels of HbA1c” value is on record as “no impact”, the “FGF19's effect on normalizing blood levels of bile acids” value is reported as “no impact” and the “FGF19's effect on normalizing blood levels of glucose” value is listed as “no impact”. The “FGF19-induced liver tumor formation” value with FGF19-mediated HCC (tofacitinib initiated 4 weeks after AAV, euthanized at 24 weeks) was “inhibited”.

B1: IL-6: mouse IL-6 (Peprotech), positive control for pSTAT3 activation (protein, UniProt P08505 25-211, looked up)
Interleukin-6: FPTSQVRRGDFTEDTTPNRPVYTTSQVGGLITHVLWEIVEMRKELCNGNSDCMNNDDALAENNLKLPEIQRNDGCYQTGYNQEICLLKISSGLLEYHSYLEYMKNNLKDNKKDKARVLQRDTETLIHIFNQEVKDLHKIVLPTPISNALLTDKLESQKEWLRTKTIQFILKSLEEFLKVTLRSTRQT
Consider B1, for which the “STAT3 phosphorylation (pSTAT3 Y705) by western blotting” value in experiment [1] was “robust elevated phosphorylation”.

B2: HGF: recombinant hepatocyte growth factor (Peprotech), positive control for BrdU incorporation (protein, UniProt Q08048 33-495; Q08048 496-728, looked up)
Hepatocyte growth factor …: QKKRRNTLHEFKKSAKTTLTKEDPLLKIKTKKVNSADECANRCIRNRGFTFTCKAFVFDKSRKRCYWYPFNSMSSGVKKGFGHEFDLYENKDYIRNCIIGKGGSYKGTVSITKSGIKCQPWNSMIPHEHSFLPSSYRGKDLQENYCRNPRGEEGGPWCFTSNPEVRYEVCDIPQCSEVECMTCNGESYRGPMDHTESGKTCQRWDQQTPHRHKFLPERYPDKGFDDNYCRNPDGKPRPWCYTLDPDTPWEYCAIKTCAHSAVNETDVPMETTECIQGQGEGYRGTSNTIWNGIPCQRWDSQYPHKHDITPENFKCKDLRENYCRNPDGAESPWCFTTDPNIRVGYCSQIPKCDVSSGQDCYRGNGKNYMGNLSKTRSGLTCSMWDKNMEDLHRHIFWEPDASKLNKNYCRNPDDDAHGPWCYTGNPLIPWDYCPISRCEGDTTPTIVNLDHPVISCAKTKQLR
Hepatocyte growth factor beta …: VVNGIPTQTTVGWMVSLKYRNKHICGGSLIKESWVLTARQCFPARNKDLKDYEAWLGIHDVHERGEEKRKQILNISQLVYGPEGSDLVLLKLARPAILDNFVSTIDLPSYGCTIPEKTTCSIYGWGYTGLINADGLLRVAHLYIMGNEKCSQHHQGKVTLNESELCAGAEKIGSGPCEGDYGGPLICEQHKMRMVLGVIVPGRGCAIPNRPGIFVRVAYYAKWIHKVILTYKL
For the molecule B2, the BrdU signal result in experiment [2] was “strong BrdU signals”.
